Measured values as given in the CombiSolv-Exp solvation set (Vermeire and Green 2021).

Test: solvent given as SMILES

c1ccccc1
Details | solvation free energy, 298 K [kcal/mol]
in BrC(Br)C(Br)Br | -4.27
in Brc1cccc2ccccc12 | -4.1
in C1=CCCCC1 | -4.37
in C1=Cc2ccccc2C1 | -4.39
in C1CCC(C2CCCCC2)CC1 | -3.96
in C1CCCCC1 | -4.21
in C1CCOC1 | -4.75
in C1COCCO1 | -4.53
in C=CCCCCCCCCCCCCCC | -3.83
in CC1CCCC1 | -4.19
in CC1CCS(=O)(=O)C1 | -4.11
in CC1COC(=O)O1 | -3.88
in CC#N | -4.25
in CC(=O)CC(C)C | -4.44
in CC(=O)N(C)C | -4.29
in CC(=O)O | -3.94
in CC(=O)OCc1ccccc1 | -4.26
in CC(=O)c1ccccc1 | -4.28
in CC(C)(C)O | -3.71
in CC(C)=O | -4.42
in CC(C)CC(C)(C)C | -3.95
in CC(C)CCCC(C)CCCC(C)CCCCC(C)CCCC(C)CCCC(C)C | -3.69
in CC(C)CO | -3.71
in CC(C)O | -3.71
in CC(O)CO | -3.21
in CCC#N | -4.47
in CCC(C)=O | -4.49
in CCC(C)O | -3.78
in CCCC#N | -4.29
in CCCCC#N | -4.42
in CCCCC(CC)COC(=O)CCCCC(=O)OCC(CC)CCCC | -4.09
in CCCCC(CC)COC(=O)c1ccccc1C(=O)OCC(CC)CCCC | -3.9
in CCCCCC | -4.03
in CCCCCC#N | -4.36
in CCCCCCC | -4
in CCCCCCCC | -3.96
in CCCCCCCCCC | -3.98
in CCCCCCCCCCCC | -3.85
in CCCCCCCCCCCCCCCC | -3.82
in CCCCCCCCCCCCO | -3.74
in CCCCCCCCCCO | -3.59
in CCCCCCCCCOC(=O)c1ccccc1C(=O)OCCCCCCCCC | -3.98
in CCCCCCCCO | -3.81
in CCCCCCCO | -3.83
in CCCCCO | -3.86
in CCCCCl | -4.46
in CCCCN(C=O)CCCC | -4.26
in CCCCOC(=O)c1ccccc1C(=O)OCCCC | -4.23
in CCCCOC(C)=O | -3.87
in CCCCOCCCC | -4.11
in CCCO | -3.84
in CCN1CCCC1=O | -4.5
in CCN(CC)C(C)=O | -4.39
in CCNC(C)=O | -4
in CCNC=O | -3.94
in CCO | -3.88
in CCOC(=O)c1ccccc1C(=O)OCC | -4.06
in CCOC(C)=O | -4.42
in CN1CCCC1=O | -4.43
in CN1CCCCC1=O | -4.47
in CN(C)P(=O)(N(C)C)N(C)C | -4.31
in CNC(C)=O | -3.87
in CNC=O | -3.83
in CO | -3.85
in COC(=O)OC | -4.41
in COC(C)(C)C | -4.31
in COC(C)=O | -4.38
in COCCO | -4.02
in CS(C)=O | -3.96
in Cc1ccc(C)cc1 | -4.37
in Cc1cccc2ccccc12 | -4.17
in Cc1cccc(C)c1 | -4.36
in Cc1cccc(O)c1 | -4
in Cc1ccccc1 | -4.47
in ClC(Cl)(Cl)Cl | -4.42
in ClC(Cl)C(Cl)Cl | -4.59
in ClC(Cl)Cl | -4.79
in ClCBr | -4.74
in ClCCCl | -4.59
in ClCCl | -4.8
in Clc1cccc2ccccc12 | -4.07
in Clc1ccccc1 | -4.44
in N#CCCCC#N | -3.59
in N#CCCCCC#N | -3.92
in N#CCCO | -3.5
in N#CCc1ccccc1 | -4.13
in N#Cc1ccccc1 | -4.35
in NC=O | -2.69
in NCCN | -3.63
in NCCO | -3.09
in NCc1ccccc1 | -4.23
in Nc1ccccc1 | -4.07
in O | -0.87
in O=C1CCCCC1 | -4.55
in O=C1CCCO1 | -4.16
in O=C(O)C(Cl)Cl | -4.09
in O=CN1CCOCC1 | -4.02
in O=Cc1ccco1 | -4.04
in OC1CCCCC1 | -3.85
in OCC1CCCO1 | -4.04
in OCCCCCO | -3.33
in OCCCCO | -3.36
in OCCCO | -3.12
in OCCCl | -3.65
in OCCO | -2.76
in OCCOCCO | -3.38
in OCCOCCOCCO | -3.43
in OCCOCCOCCOCCO | -3.56
in OCCS | -3.62
in OCCc1ccccc1 | -3.96
in OCc1ccccc1 | -3.94
in OCc1ccco1 | -3.89
in S=C=S | -4.51
in [2H]O[2H] | -1.01
in c1ccc2c(c1)CCCC2 | -4.33
in c1ccc2ncccc2c1 | -4.31
in c1ccc(C2CCCCC2)cc1 | -4.19
in c1ccncc1 | -4.51
in c1ccsc1 | -4.61
